Measurements taken from patent US20220184058A1, “PHARMACEUTICAL COMPOSITION FOR TREATING AORTIC ANEURYSM” (National University Corporation Hamamatsu University School …, priority 2019, published 2022).

Tested on: aortic wall hypoxia-induced rat AAA model
Experiment: Aortic wall hypoxia-induced rat AAA model: non-rupture survival / mortality due to rupture
Type: in vivo
Conditions: day of operation to Day 28 post operation, versus control group; trend toward improvement in survival rate
From the text: The action of Compound 1 and pitavastatin in rat AAA models (Non-Patent Document 3) induced by operation were examined. In the operation, the aortic wall of each model was separated from the surrounding tissues. After a catheter was inserted, the abdominal aorta was ligated together with a catheter with a thread was studied.
In the test, Compound 1 was manufactured according to the method disclosed in Patent Document 1 and mixed, in a proportion of 0.15%, with a normal diet (FR2, manufactured by Funabashi Farm Co., Ltd.), and the Compound 1-mixed diet was used. In regard to pitavastatin, 0.003% of pitavastatin calcium was mixed with a normal diet(FR2, manufactured by Funabashi Farm Co., Ltd.) and the pitavastatin-mixed diet was used.
Sprague-Dawley male rats (300 to 350 g: Japan SLC, Inc.) were used in the experiment. The rats were reared at room temperature of 25° C.±1° C., and allowed to freely take the feed and water.
The model was created according to the method disclosed in Non-Patent Document 3. Specifically, a rat AAA model was created by separating the rat aortic wall from the surrounding tissue, inserting a polyurethane catheter, and then ligating the abdominal aorta together with a plastic catheter with a monofilament thread, and inducing AAA. […]
In each group, up to 28 days post operation, the aneurysm diameter was measured by echo and comparison in survival was made. […]

O=C(NCCCOc1ccc2[nH]c(=O)ccc2c1)N(C1CC1)[C@@H]1CCCC[C@H]1O [Compound 1, (−)-6-[3-[3-cyclopropyl-3-[(1R,2R)-2-hydroxycyclohexyl]ureido]propoxy]-2(1H)-quinolinone]
mortality rates due to rupture: lower than that in the control group
